The record followed here is patent EP4603105A1, “PHARMACEUTICAL COMPOSITION CONTAINING CYCLIC COMPOUND HAVING SELECTIVE KRAS INHIBITORY EFFECT AGAINST HRAS AND NRAS” (CHUGAI SEIYAKU KABUSHIKI KAISHA, priority 2022, dated 2024).

What is called IC50 is the concentration that gives 50% inhibition. Higher therefore signals weaker potency. By Kd is commonly meant a measure of binding affinity in units of concentration. A higher Kd goes with lower affinity.

In assay [1] the test system is human bladder cancer strain UM-UC-3. Type of assay: cell-based. As to the method:
A test compound was dispensed into a U-bottom 384-well plate as 40 nL serially diluted dimethyl sulfoxide solutions using a liquid handler Echo (LABCYTE). As for human bladder cancer strain UM-UC-3 (ATCC), a cell suspension was prepared so as to have 250 cells/40 µL in an MEM medium (Nacalai Tesque) supplemented with 10% fetal bovine serum (Sigma), an MEM non-essential amino acids solution (100X), and 1 mmol/L sodium pyruvate. This cell suspension was dispensed in an amount of 40 µL per well into a plate containing the test compound, and cultured at 37°C in a 5% carbon dioxide gas incubator. Seven days later, 20 µL of CellTiter-Glo (registered trademark) (Promega) was added to each well and luminescence was measured. […]

In assay [2] the test system is human colorectal cancer strain GP2d. The format is cell-based. The protocol:
(§1) A test compound was dispensed into a U-bottom 384-well plate as 40 nL serially diluted dimethyl sulfoxide solutions using a liquid handler Echo (LABCYTE). As for human colorectal cancer strain GP2d (ECACC), a cell suspension was prepared so as to have 500 cells/40 µL in a Dulbecco's modified Eagle medium supplemented with 10% fetal bovine serum (Sigma). This cell suspension was dispensed in an amount of 40 µL per well into a plate containing the test compound, and cultured at 37°C in a 5% carbon dioxide gas incubator. Seven days later, 20 µL of CellTiter-Glo (registered trademark) (Promega) was added to each well and luminescence was measured.

The test system of assay [3] is human ovarian cancer strain OV7. The format is cell-based. The protocol: A test compound was dispensed into a U-bottom 384-well plate as 40 nL serially diluted dimethyl sulfoxide solutions using a liquid handler Echo (LABCYTE). As for human ovarian cancer strain OV7 (ECACC), a cell suspension was prepared so as to have 250 cells/40 µL in a DMEM/Ham's F-12 medium (Nacalai Tesque) supplemented with 5% fetal bovine serum (Sigma), 0.5 µg/mL hydrocortisone, and 10 µg/mL insulin. This cell suspension was dispensed in an amount of 40 µL per well into a plate containing the test compound, and cultured at 37°C in a 5% carbon dioxide gas incubator. Seven days later, 20 µL of CellTiter-Glo (registered trademark) (Promega) was added to each well and luminescence was measured.

Assay [4] deals with human gastric cancer strain GSU. Type of assay: cell-based. As to the method:
as §1, with “gastric” for “colorectal”, “GSU (Institute of Physical and Chemical Research),” for “GP2d (ECACC),”, “200” for “500”, “an RPMI-1640” for “a Dulbecco's modified Eagle”, “medium (Sigma)” for “medium”

Assay [5] has as its system human gastric cancer strain SNU-1. Type of assay: cell-based. As to the method: A test compound was dispensed into a U-bottom 384-well plate as 40 nL serially diluted dimethyl sulfoxide solutions using a liquid handler Echo (LABCYTE). As for human gastric cancer strain SNU-1 (ATCC), a cell suspension was prepared so as to have 250 cells/40 µL in an RPMI-1640 medium (Sigma) supplemented with 10% fetal bovine serum (Sigma), a 2.5 g/L D-(+)-glucose solution, 10 mmol/L HEPES, and 1 mmol/L sodium pyruvate. This cell suspension was dispensed in an amount of 40 µL per well into a plate containing the test compound, and cultured at 37°C in a 5% carbon dioxide gas incubator. Seven days later, 20 µL of CellTiter-Glo (registered trademark) (Promega) was added to each well and luminescence was measured.

The subject of assay [6] is human pancreatic cancer strain KP4. Type of assay: cell-based. As to the method: as §1, with “pancreatic” for “colorectal”, “KP4 (Institute of Physical and Chemical Research),” for “GP2d (ECACC),”, “DMEM/Ham's F-12” for “Dulbecco's modified Eagle”, “medium (Nacalai Tesque)” for “medium”
Assay [7] concerns human lung cancer strain NCI-H441. Type of assay: cell-based. The gist of the method:
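Signal came from […] measured per well once the reagent was added. Beforehand, cells were cultured at 37°C and 5% carbon dioxide on a compound series serially diluted in dimethyl sulfoxide.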

Assay [8] has as its target HRAS wild-type protein (Homo sapiens, UniProt P01112). The assay can be described thus: Binding to HRAS by surface plasmon resonance (SPR), KD and KD ratio to KRAS. The gist of the method:
(§2)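 Each cycle, GDP-bound biotin-Avi RAS was captured (~100–300 RU), compound concentrations were injected low to high for 75 s each at 100 µL/min, then the chip was regenerated. Buffer: HBS pH 7.4, 10 mM MgCl2, 10 µM GDP, 1 mM DTT, 4% DMSO; 30°C. KD from a 1:1 binding model.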

Assay [9] concerns the target GDP-bound NRAS wild-type protein (Homo sapiens, UniProt P01111). Description: Binding to NRAS by surface plasmon resonance (SPR), KD and KD ratio to KRAS. In short, it runs like this:
as §2

For assay [10], the target named is GDP-bound KRAS wild-type protein (Homo sapiens, UniProt P01116). The assay can be described thus: Binding to KRAS by surface plasmon resonance (SPR), dissociation constant KD. The conditions noted are these: Single Cycle Kinetics. In short, it runs like this: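 Affinity is measured by surface plasmon resonance at 30°C against captured, GDP-loaded RAS carrying a biotinylated Avi tag. Compounds are titrated by single-cycle kinetics, and KD comes from a 1:1 fit.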
For orientation: In SPR one partner is held on a chip, and binding of the other changes the refractive index at the surface.

Where [11] appears, read: ratio of KD for HRAS wild-type protein to KD for KRAS.
Setting [12] is: ratio of KD for GDP-bound NRAS wild-type protein to KD for KRAS.

GDP-bound NRAS wild-type protein, sequence (P01111 whole entry): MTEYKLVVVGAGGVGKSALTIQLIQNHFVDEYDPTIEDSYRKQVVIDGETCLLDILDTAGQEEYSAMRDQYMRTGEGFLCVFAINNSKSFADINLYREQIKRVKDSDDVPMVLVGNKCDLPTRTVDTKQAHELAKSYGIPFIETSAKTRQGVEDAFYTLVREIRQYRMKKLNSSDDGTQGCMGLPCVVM
HRAS wild-type protein, sequence (P01112 whole entry): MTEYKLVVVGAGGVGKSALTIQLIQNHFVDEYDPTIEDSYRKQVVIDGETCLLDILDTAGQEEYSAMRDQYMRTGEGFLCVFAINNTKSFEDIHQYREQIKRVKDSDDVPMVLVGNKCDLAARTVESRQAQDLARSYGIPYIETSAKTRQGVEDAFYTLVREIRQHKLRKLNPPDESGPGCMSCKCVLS
GDP-bound KRAS wild-type protein, sequence (P01116 1-188 isoform P01116-2): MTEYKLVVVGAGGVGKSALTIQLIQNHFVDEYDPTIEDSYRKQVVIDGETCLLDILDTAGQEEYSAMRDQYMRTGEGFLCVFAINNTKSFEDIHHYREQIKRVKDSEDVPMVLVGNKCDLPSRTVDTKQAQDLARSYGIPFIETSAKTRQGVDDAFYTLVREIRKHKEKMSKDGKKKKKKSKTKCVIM

`CCO[C@@H]1C[C@H]2C(=O)NC3(CCCC3)C(=O)N(C)[C@@H](C3CCCC3)C(=O)N(C)[C@H](C(=O)N(C)C)CC(=O)N(C)[C@@H](CC(C)C)C(=O)N[C@@H]([C@@H](C)CC)C(=O)N(C)CC(=O)N(C)[C@H]3C/C=C\CCN(C3=O)[C@@H](Cc3ccc(C(F)(F)F)cc3)C(=O)N(C)CC(=O)N[C@@H](CCc3cc(F)c(C(F)(F)F)c(F)c3)C(=O)N2C1` [PP1105, (2S,8S,12R,14S,20S,23S,27S,30S,36S,38Z)-20-cyclopentyl-8-[2-[3,5-difluoro-4-(trifluoromethyl)phenyl]ethyl]-12-ethoxy-27-isobutyl-N,N,4,19,22,26,32,35-octamethyl-30-[(1S)-1-methylpropyl]-3,6,9,15,18,21,25,28,31,34,42-undecaoxo-2-[[4-(trifluoromethyl)phenyl]methyl]spiro[1,4,7,10,16,19,22,26,29,32,35-undecazatricyclo[34.5.1.0^10,14]dotetracont-38-ene-17,1'-cyclopentane]-23-carboxamide]: the IC50 in assay [1] was 2.1 nM; in [2], 2.9 nM; in [3] it was 8.1 nM; in assay [4] it was 0.3 nM; in assay [5], 2.7 nM; in assay [6], 3.1 nM. The compound also had an IC50 in [7] of 12 nM. For the same compound, the “HRAS /KRAS” value in [8] (setting [11]) is “A (a compound having 10 or more and less than 20 is denoted as A)”. Besides, the “NRAS /KRAS” value in assay [9] (setting [12]) is “A (a compound having 10 or more and less than 20 is denoted as A)”. In addition, binding in assay [10] was put at a Kd of 0.07 nM.
As for `CCCC[C@H]1C(=O)N[C@@H]([C@@H](C)CC)C(=O)N(C)CC(=O)N(C)[C@H]2C/C=C\CCN(C2=O)[C@@H](Cc2ccc(C(F)(F)F)cc2)C(=O)N(C)CC(=O)N[C@@H](CCc2cc(F)c(C(F)(F)F)c(F)c2)C(=O)N2C[C@H](F)C[C@H]2C(=O)NC2(CC(C)(C)C2)C(=O)N(C)[C@@H](C2CCCC2)C(=O)N(C)[C@H](C(=O)N(C)C)CC(=O)N1C` [PP1693, (2S,8S,12R,14S,20S,23S,27S,30S,36S,38Z)-27-butyl-20-cyclopentyl-8-[2-[3,5-difluoro-4-(trifluoromethyl)phenyl]ethyl]-12-fluoro-N,N,3',3',4,19,22,26,32,35-decamethyl-30-[(1S)-1-methylpropyl]-3,6,9,15,18,21,25,28,31,34,42-undecaoxo-2-[[4-(trifluoromethyl)phenyl]methyl]spiro[1,4,7,10,16,19,22,26,29,32,35-undecazatricyclo[34.5.1.0^10,14]dotetracont-38-ene-17,1'-cyclobutane]-23-carboxamide], the IC50 came to 4.1 nM in assay [1]; 2.4 nM in assay [2]; 7.4 nM in assay [3]; 0.5 nM in assay [4]; 4.3 nM in assay [5]; 14.2 nM in [6]. The compound further gave an IC50 in [7] of 1.1 nM. Moreover, the “HRAS /KRAS” value in assay [8] (ratio of KD value for HRAS wild-type protein to KD value for KRAS (SPR)) is “A (a compound having 10 or more and less than 20 is denoted as A)”. Also, the “NRAS /KRAS” value in assay [9] (ratio of KD value for GDP-bound NRAS wild-type protein to KD value for KRAS (SPR)) is reported as “AA (a compound having 20 or more is denoted as AA)”. The Kd in assay [10] (1:1 binding model) is 0.027 nM.
For `CCC[C@H]1C(=O)N[C@@H]([C@@H](C)CC)C(=O)N2CCC[C@H]2C(=O)N(C)[C@H]2C/C=C\CCN(C2=O)[C@@H](Cc2ccc(C(F)(F)F)cc2)C(=O)N(C)CC(=O)N[C@@H](CCc2ccc(C(F)(F)F)c(OC)c2)C(=O)N2C[C@H](OCC)C[C@H]2C(=O)N(C)C2(CCC2)C(=O)N(C)[C@@H](C2CCCC2)C(=O)N(C)[C@H](C(=O)N(C)C)CC(=O)N1C` [PP2320, (1S,4S,10S,13S,17S,20S,26S,28R,32S,38S,42Z)-20-cyclopentyl-28-ethoxy-32-[2-[3-methoxy-4-(trifluoromethyl)phenyl]ethyl]-N,N,2,14,18,21,24,36-octamethyl-10-[(1S)-1-methylpropyl]-3,9,12,15,19,22,25,31,34,37,45-undecaoxo-13-propyl-38-[[4-(trifluoromethyl)phenyl]methyl]spiro[2,8, 11,14,18,21,24,30,33,36,39-undecazatetracyclo[37.5.1.0^4,8.0^26,30]pentatetracont-42-ene-23,1'-cyclobutane]-17-carboxamide], the IC50 was 1.3 nM in assay [1]; 3.1 nM in assay [2]; 8.7 nM in [3]; 1.2 nM in assay [4]; 5.6 nM in assay [5]; 4.8 nM in assay [6]. The compound also yielded an IC50 in assay [7] of 0.6 nM. In addition, the “HRAS /KRAS” value in assay [8] (ratio of the KD value with respect to HRAS wild-type protein to the KD value with respect to KRAS) was “A (a compound having 10 or more and less than 20 is denoted as A)”. For the same compound, in assay [9] (ratio of the KD value with respect to GDP-bound NRAS wild-type protein to the KD value with respect to KRAS), the “NRAS /KRAS” value is “A (a compound having 10 or more and less than 20 is denoted as A)”.
Regarding `CCO[C@@H]1C[C@H]2C(=O)NC3(CCCC3)C(=O)N(C)[C@@H](C3CCCC3)C(=O)N(C)[C@H](C(=O)N(C)C)CC(=O)N(C)[C@@H](CC(C)C)C(=O)N[C@@H]([C@@H](C)CC)C(=O)N(C)CC(=O)N(C)[C@H]3C/C(F)=C\CCN(C3=O)[C@@H](Cc3ccc(C(F)(F)F)cc3)C(=O)N(C)CC(=O)N[C@@H](CCc3cc(F)c(C(F)(F)F)c(F)c3)C(=O)N2C1` [PP3510, (2S,8S,12R,14S,20S,23S,27S,30S,36S,38E)-20-cyclopentyl-8-[2-[3,5-difluoro-4-(trifluoromethyl)phenyl]ethyl]-12-ethoxy-38-fluoro-27-isobutyl-N,N,4,19,22,26,32,35-octamethyl-30-[(1S)-1-methylpropyl]-3,6,9,15,18,21,25,28,31,34,42-undecaoxo-2-[[4-(trifluoromethyl)phenyl]methyl]spiro[1,4,7,10,16,19,22,26,29,32,35-undecazatricyclo[34.5.1.0^10,14]dotetracont-38-ene-17,1'-cyclopentane]-23-carboxamide], the half-inhibitory concentration (IC50) in assay [1] was 11.5 nM; in assay [2], 13.7 nM; in [3], 23.6 nM; in [4], 1.2 nM; in assay [5], 6.6 nM; in assay [6] it was 16.8 nM. The IC50 in [7] was found to be 11.1 nM. Besides, in [8] (setting [11]), the “HRAS /KRAS” value was “B (a compound having 3 or more and less than 10 is denoted as B)”. The “NRAS /KRAS” value in assay [9] (setting [12]) is “B (a compound having 3 or more and less than 10 is denoted as B)”.
